Assay results published in patent US20250152651A1, “COMPOSITIONS AND METHODS FOR EXTRACTING COMPOUNDS” (Unicity Properties, Inc., priority 2023, published 2025).
Where “and” joins values, the source holds several entries; their conditions need not be identical. Identical values can stand only once.

Molecular target: α-glucosidase
Test: α-glucosidase inhibitory activity assay
Type: biochemical
Conditions: alpha-glucosidase 1 U/ml, P-NPG substrate, 37° C., pH 6.8
Experimental: An assay to measure α-glucosidase inhibitory activity of extract and fractions was carried out according to the standard method with minor modification. In a 96-well plate, reaction mixture containing 50 μl phosphate buffer (100 mM, pH=6. 8), 10 μl alpha-glucosidase (1 U/ml), and 20 μl of varying concentrations of extract and fractions (0.1, 0.2, 0.3, 0.4, and 0.5 mg/ml) was preincubated at 37° C. for 15 min. Then, 20 μl P-NPG (5 mM) were added as a substrate and incubated further at 37° C. for 20 min. The reaction was stopped by adding 50 μl Na2 CO3 (0.1 M). The absorbance of the released p-nitrophenol was measured at 405 nm using Multiplate Reader. Acarbose at various concentrations (0.1-0.5 mg/ml) was included as a standard. Without test substance was set up in parallel as a control and each experiment was performed in triplicates. The results were expressed as percentage inhibition, which was calculated using the formula,
Inhibitory activity (%)=(1−As/Ac)×100 • where, As is the absorbance in the presence of test substance and Ac is the absorbance of control.

O=C(O[C@@H]1Cc2c(O)cc(O)cc2O[C@@H]1c1cc(O)c(O)c(O)c1)c1cc(O)c(O)c(O)c1 [EGCG, epigallocatechin gallate]
IC50 values of α-glucosidase: 138 µg/mL and 138.6 µg/mL
